The source of these data is ChEMBL document CHEMBL1132081, “Design, synthesis, and structure-activity relationship studies of himbacine derived muscarinic receptor antagonists” (Bioorg Med Chem Lett, 1999).

A word on the Ki: it is the dissociation constant of the complex between target and ligand, obtained from inhibition or displacement. High values mean lower affinity, low ones higher affinity.

The target of assay [1] is T1, Muscarinic acetylcholine receptor M2 (Homo sapiens, UniProt P08172).
T1 sequence (P08172 whole entry): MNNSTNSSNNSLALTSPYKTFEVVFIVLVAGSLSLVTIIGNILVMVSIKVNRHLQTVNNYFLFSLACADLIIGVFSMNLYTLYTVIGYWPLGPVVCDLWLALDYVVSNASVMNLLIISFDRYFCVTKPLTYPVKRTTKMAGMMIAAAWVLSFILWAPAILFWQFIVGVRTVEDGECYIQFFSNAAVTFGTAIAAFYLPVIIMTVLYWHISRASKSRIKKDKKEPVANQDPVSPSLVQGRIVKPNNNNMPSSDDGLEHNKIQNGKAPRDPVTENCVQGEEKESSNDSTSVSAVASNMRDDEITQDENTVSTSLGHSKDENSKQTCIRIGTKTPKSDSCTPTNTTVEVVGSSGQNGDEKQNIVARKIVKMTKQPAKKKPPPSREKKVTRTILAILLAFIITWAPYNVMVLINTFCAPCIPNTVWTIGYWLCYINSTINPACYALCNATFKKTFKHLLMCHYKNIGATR
Description: Binding affinity towards human muscarinic M2 receptor in CHO-KI cells using [3H]- QNB as radioligand. It counts as cell-based.

Assay [2] addresses T2, Muscarinic acetylcholine receptor M1 (Homo sapiens, UniProt P11229).
T2 sequence (P11229 whole entry): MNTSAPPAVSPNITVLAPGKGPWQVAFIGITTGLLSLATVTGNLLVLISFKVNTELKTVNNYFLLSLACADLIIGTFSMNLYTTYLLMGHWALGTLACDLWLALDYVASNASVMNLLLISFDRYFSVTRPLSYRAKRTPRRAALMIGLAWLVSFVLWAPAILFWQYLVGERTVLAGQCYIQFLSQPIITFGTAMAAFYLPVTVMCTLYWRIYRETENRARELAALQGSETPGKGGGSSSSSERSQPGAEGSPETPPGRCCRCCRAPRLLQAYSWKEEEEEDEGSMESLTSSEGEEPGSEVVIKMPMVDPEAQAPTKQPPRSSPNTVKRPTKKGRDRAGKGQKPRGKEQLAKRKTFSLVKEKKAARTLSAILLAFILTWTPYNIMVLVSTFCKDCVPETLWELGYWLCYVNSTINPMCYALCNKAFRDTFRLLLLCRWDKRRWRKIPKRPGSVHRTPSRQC
Description: Binding affinity towards human muscarinic M1 receptor in CHO-KI cells using [3H]- QNB as radioligand. In kind it is cell-based.

For `C[C@@H]1OC(=O)[C@H]2C[C@H]3CCCC[C@@H]3[C@@H](CCCN3CCCCC3)[C@@H]12`, the Ki was 352 nM in assay [1] and 427 nM in assay [2].
As to `C[C@@H]1OC(=O)[C@H]2C[C@H]3CCCC[C@@H]3[C@@H](CCCN3CCN(C)CC3)[C@@H]12`, the Ki stood at 595 nM in assay [1] and 579 nM in assay [2].
For `C[C@@H]1OC(=O)[C@H]2C[C@H]3CCCC[C@@H]3[C@@H](CCCN3CCSCC3)[C@@H]12`, in that order: 189 nM and 179 nM.
For `C[C@@H]1OC(=O)[C@H]2C[C@H]3CCCC[C@@H]3[C@@H](CCCN3CCN(C4CCCCC4)CC3)[C@@H]12`, in that order: 520 nM and 464 nM.
In the same order, the values of `C[C@@H]1OC(=O)[C@H]2C[C@H]3CCCC[C@@H]3[C@@H](CCCN3CCC(N4CCCCC4)CC3)[C@@H]12` are 650 nM and 312 nM.
As to `C[C@@H]1OC(=O)[C@H]2C[C@H]3CCCC[C@@H]3[C@@H](CCCN3CCCC(O)C3)[C@@H]12` (stereo not given in full), the Ki came out at 148 nM in assay [1] and 1530 nM in assay [2].
As for `CC1CCN(CCC[C@@H]2[C@H]3CCCC[C@@H]3C[C@@H]3C(=O)O[C@@H](C)[C@H]23)CC1`, the Ki was determined as 283 nM in assay [1] and 554 nM in assay [2].
In the same order, the values of `C[C@@H]1OC(=O)[C@H]2C[C@H]3CCCC[C@@H]3[C@@H](CCCN3CCNCC3)[C@@H]12` are > 42 nM and > 420 nM.
For `C[C@@H]1OC(=O)[C@H]2C[C@H]3CCCC[C@@H]3[C@@H](CCCN3CCN[C@@H](C)C3)[C@@H]12`, in that order: > 500 nM and 581 nM.
As for `C[C@@H]1OC(=O)[C@H]2C[C@H]3CCCC[C@@H]3[C@@H](CCCN3CCCC(C)(C)C3)[C@@H]12`, the Ki in assay [1] came to 224 nM; in assay [2], 416 nM.
For `C[C@@H]1OC(=O)[C@H]2C[C@H]3CCCC[C@@H]3[C@@H](CCCN3CCOCC3)[C@@H]12`, in that order: 51 nM and 222 nM.
Regarding `C[C@@H]1OC(=O)[C@H]2C[C@H]3CCCC[C@@H]3[C@@H](CCCN3CCc4ccccc4C3)[C@@H]12`, the Ki in assay [1] was 184 nM; in assay [2], 304 nM.
`C[C@@H]1OC(=O)[C@H]2C[C@H]3CCCC[C@@H]3[C@@H](CCCNC34CC5CC(CC(C5)C3)C4)[C@@H]12`: the Ki was determined as 26 nM in assay [1] and 136 nM in assay [2].
In the same order, the values of `C[C@@H]1OC(=O)[C@H]2C[C@H]3CCCC[C@@H]3[C@@H](CCCN3CCCC4CCCCC43)[C@@H]12` (stereo not given in full) are 13 nM and 38 nM.
In the same order, the values of `CC1CN(CCC[C@@H]2[C@H]3CCCC[C@@H]3C[C@@H]3C(=O)O[C@@H](C)[C@H]23)CC(C)O1` (stereo not given in full) are 376 nM and 601 nM.
In the same order, the values of `CC1CN(CCC[C@@H]2[C@H]3CCCC[C@@H]3C[C@@H]3C(=O)O[C@@H](C)[C@H]23)C(C)CN1` (stereo not given in full) are 570 nM and 353 nM.
For the compound `CC1CCCN(CCC[C@@H]2[C@H]3CCCC[C@@H]3C[C@@H]3C(=O)O[C@@H](C)[C@H]23)C1` (stereo not given in full), the Ki worked out at 312 nM in assay [1] and 376 nM in assay [2].
For `C[C@@H]1OC(=O)[C@H]2C[C@H]3CCCC[C@@H]3[C@@H](CC[C@H]3CCC[C@H](C)N3C)[C@@H]12`, in that order: 32.2 nM and 4.3 nM.
As for `C[C@@H]1OC(=O)[C@H]2C[C@H]3CCCC[C@@H]3[C@@H](CCCN3CCN(C(=O)OC(C)(C)C)CC3)[C@@H]12`, the values for the Ki in assay [1] and in assay [2] were 485 nM and 445 nM, respectively.
Turning to `CC1CCCCN1CCC[C@@H]1[C@H]2CCCC[C@@H]2C[C@@H]2C(=O)O[C@@H](C)[C@H]12` (stereo not given in full), the Ki in assay [1] came out at 275 nM; in assay [2] it was 399 nM.
With `C[C@@H]1CN(CCC[C@@H]2[C@H]3CCCC[C@@H]3C[C@@H]3C(=O)O[C@@H](C)[C@H]23)CCN1`, the Ki in assay [1] is > 500 nM; in assay [2], 857 nM.
For `CC1CN(CCC[C@@H]2[C@H]3CCCC[C@@H]3C[C@@H]3C(=O)O[C@@H](C)[C@H]23)CC(C)N1` (stereo not given in full), in that order: > 500 nM and 1360 nM.
For the compound `CCC1CCCCN1CCC[C@@H]1[C@H]2CCCC[C@@H]2C[C@@H]2C(=O)O[C@@H](C)[C@H]12` (stereo not given in full), the Ki in assay [1] was determined as 209 nM; in assay [2], 341 nM.
In the same order, the values of `C[C@@H]1OC(=O)[C@H]2C[C@H]3CCCC[C@@H]3[C@@H](CCCN3CCC(O)CC3)[C@@H]12` are > 280 nM and > 900 nM.
As to `C[C@@H]1OC(=O)[C@H]2C[C@H]3CCCC[C@@H]3[C@@H](/C=C/[C@H]3CCC[C@H](C)N3C)[C@@H]12` [HIMBACINE], the Ki in assay [1] was found to be 48.4 nM; in assay [2], 4.5 nM.
